In US8859543B2, “Imidazo[1,2-a]pyrazine derivatives and their use for the prevention or treatment of neurological, psychiatric and metabolic disorders and diseases” (Janssen Pharmaceutica NV, priority 2010, dated 2014) one finds IC50 and ED50 data, which are given here for 1 compound.

The structures appear in SMILES notation.

One experiment deals with PDE5A (Homo sapiens, UniProt O76074). The experiment in a line: In vitro PDE selectivity assay, PDE5A. The experiment is classed as biochemical. Particulars: Table 4a in vitro selectivity; read-out: IC50 PDE type 5A. Here is the method: (§1) Rat recombinant PDE10A (rPDE10A2) was expressed in Sf9 cells using a recombinant rPDE10A baculovirus construct. Cells were harvested after 48 h of infection and the rPDE10A protein was purified by metal chelate chromatography on Ni-sepharose 6FF. […] The reaction was incubated for 60 min. at RT. […] After sedimentation of the beads during 30 min. the radioactivity was measured in a Perkin Elmer Topcount scintillation counter and results were expressed as cpm. For blank values the enzyme was omitted from the reaction and replaced by incubation buffer. […] The same assay principle is applied for the measurement of the affinity of the compound for other members of the PDE family with appropriate modifications in incubation buffer, substrate concentration, incubation time and stop solution.

A further experiment concerns the target PDE6AB (Homo sapiens, UniProt P16499+P35913). The experiment in a line: In vitro PDE selectivity assay, PDE6AB. The experiment is classed as biochemical. Particulars: Table 4a in vitro selectivity; read-out: IC50 PDE type 6AB. Here is the method: as §1
Experiment [1] deals with SCH-23390-induced hypolocomotion. The experiment in a line: SCH-23390-induced hypolocomotion in mice. The experiment is classed as in vivo. The following applies: Mus musculus; male NMRI mice, pretreated 0.5 h earlier; criterion total distance >2500 counts; read-out: ED50 reversal of SCH-23390-induced hypolocomotion. On the procedure: SCH-23390-Induced Hypolocomotion in Mice
SCM-23390 (0.08 mg/kg, i.v.)-induced hypolocomotion was evaluated over a 30-min period starting immediately after the SCH-23390 challenge in male NMRI mice pretreated 0.5 h earlier with test compound or solvent. Averaged activity in solvent-treated control mice was 1540±559 counts (mean±SD; n=103). Criterion for drug-induced reversal of the SCH-23390-induced hypolocomotion: total distance: >2500 counts (2.9% false positives in controls).

For the next experiment, the target named is PDE1B (Homo sapiens, UniProt Q01064). The experiment in a line: In vitro PDE selectivity assay, PDE1B. The experiment is classed as biochemical. Particulars: Table 4a in vitro selectivity; read-out: IC50 PDE type 1B. On the procedure:
as §1

A further experiment addresses PDE3A (Homo sapiens, UniProt Q14432). The experiment in a line: In vitro PDE selectivity assay, PDE3A. The experiment is classed as biochemical. Particulars: Table 4a in vitro selectivity; read-out: IC50 PDE type 3A. Here is the method: as §1
The target in a further experiment is PDE9A (Homo sapiens, UniProt O76083). The experiment in a line: In vitro PDE selectivity assay, PDE9A. The experiment is classed as biochemical. Particulars: Table 4a in vitro selectivity; read-out: IC50 PDE type 9A. On the procedure: as §1
Experiment [2] deals with apomorphine-induced stereotypy. The experiment in a line: Apomorphine-induced stereotypy in rats (APO). Particulars: Rattus norvegicus, read-out: APO ED50. The experiment is classed as in vivo. Here is the method: Apomorphine-Induced Stereotypy in Rats (APO)
Apomorphine (1.0 mg/kg, i.v.)-induced stereotypy (compulsive sniffing, licking, chewing) was scored every 5 min. over the first hour after injection of apomorphine, following a 1 hour interval pre-treatment with the test compound. The score system was: (3) pronounced, (2) moderate, (1) slight, and (O) absent.

The target in a further experiment is PDE8A1 (Homo sapiens, UniProt O60658). The experiment in a line: In vitro PDE selectivity assay, PDE8A. The experiment is classed as biochemical. Particulars: Table 4a in vitro selectivity; read-out: IC50 PDE type 8A. On the procedure: as §1
The target of another experiment is PDE7A (Homo sapiens, UniProt Q13946). The experiment in a line: In vitro PDE selectivity assay, PDE7A. The following applies: Table 4a in vitro selectivity; read-out: IC50 PDE type 7A. The experiment is classed as biochemical. Here is the method: as §1
The target of another experiment is T1, PDE10 (Rattus norvegicus, UniProt Q9QYJ6).
T1 construct: from tissue; host or cells: rat brain sections, striatum (ex vivo autoradiography after in vivo dosing)
T1 sequence (Q9QYJ6 1-794): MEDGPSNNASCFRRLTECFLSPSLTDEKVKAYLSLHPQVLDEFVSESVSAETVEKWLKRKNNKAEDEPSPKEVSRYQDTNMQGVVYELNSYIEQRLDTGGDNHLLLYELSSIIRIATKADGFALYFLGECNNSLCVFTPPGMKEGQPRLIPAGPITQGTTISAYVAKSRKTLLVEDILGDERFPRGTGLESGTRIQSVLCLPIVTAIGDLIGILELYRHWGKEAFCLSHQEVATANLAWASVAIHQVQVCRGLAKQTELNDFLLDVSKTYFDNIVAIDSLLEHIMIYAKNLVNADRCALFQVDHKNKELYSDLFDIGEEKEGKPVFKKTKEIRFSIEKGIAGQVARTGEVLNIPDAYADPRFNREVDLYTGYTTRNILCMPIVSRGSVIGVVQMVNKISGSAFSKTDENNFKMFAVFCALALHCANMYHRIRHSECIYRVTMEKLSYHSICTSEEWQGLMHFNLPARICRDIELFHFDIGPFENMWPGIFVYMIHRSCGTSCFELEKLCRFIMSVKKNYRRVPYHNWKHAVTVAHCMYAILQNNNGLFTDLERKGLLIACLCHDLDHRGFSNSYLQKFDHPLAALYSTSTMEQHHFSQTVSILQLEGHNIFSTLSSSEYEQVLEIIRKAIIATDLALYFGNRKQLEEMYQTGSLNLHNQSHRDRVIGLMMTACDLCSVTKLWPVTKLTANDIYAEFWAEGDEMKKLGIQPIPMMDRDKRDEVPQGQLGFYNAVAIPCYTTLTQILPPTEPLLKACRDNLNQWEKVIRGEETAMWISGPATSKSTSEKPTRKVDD
The experiment in a line: PDE10 occupancy ([3H]-MP-10, striatum). The experiment is classed as in vivo. Particulars: rat, sc; occupancy, administered s.c.; read-out: Occ. ED50. On the procedure:
Dose-response or single dose experiments were performed to measure PDE10 occupancy 1 hour after subcutaneous (s.c.) or oral (p.o.) administration. Male Wistar rats (200 g) were treated by s.c. or p.o. administration of various PDE10 inhibitors. The PDE10 radioligand [^3H]-MP-10 (10 μCi/animal) was injected intravenously (i.v.) 30 minutes before sacrifice. Brains were immediately removed from the skull and rapidly frozen. Twenty μm-thick brain sections were cut using a cryostat-microtome, thaw-mounted on microscope slides and loaded in a β-imager to quantify PDE10 occupancy in the striatum.

Another experiment addresses PDE11A (Homo sapiens, UniProt Q9HCR9). The experiment in a line: In vitro PDE selectivity assay, PDE11A. The experiment is classed as biochemical. The following applies: Table 4a in vitro selectivity; read-out: IC50 PDE type 11A. Here is the method:
as §1

By IC50 is commonly meant the concentration that gives 50% inhibition. A word on the ED50: it is the dose that gives a 50% effect, or the effect in half of the subjects.

PDE9A, sequence (O76083 whole entry): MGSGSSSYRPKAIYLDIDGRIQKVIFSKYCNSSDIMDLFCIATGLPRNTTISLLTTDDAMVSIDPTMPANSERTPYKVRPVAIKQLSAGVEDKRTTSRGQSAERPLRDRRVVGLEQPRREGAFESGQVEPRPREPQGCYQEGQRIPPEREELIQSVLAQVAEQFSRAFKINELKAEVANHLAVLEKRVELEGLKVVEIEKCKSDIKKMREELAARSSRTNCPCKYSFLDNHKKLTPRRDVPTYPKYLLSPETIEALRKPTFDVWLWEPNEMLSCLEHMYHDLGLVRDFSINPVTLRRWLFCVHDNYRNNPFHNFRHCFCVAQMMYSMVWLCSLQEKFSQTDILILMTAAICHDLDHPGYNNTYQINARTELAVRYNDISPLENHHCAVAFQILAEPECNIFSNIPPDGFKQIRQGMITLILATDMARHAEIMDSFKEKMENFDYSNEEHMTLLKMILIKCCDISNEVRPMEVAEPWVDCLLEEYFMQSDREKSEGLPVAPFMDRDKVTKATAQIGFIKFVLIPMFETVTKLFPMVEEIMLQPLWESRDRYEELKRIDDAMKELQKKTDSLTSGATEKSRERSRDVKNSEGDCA
PDE8A1, sequence (O60658 whole entry, species assumed): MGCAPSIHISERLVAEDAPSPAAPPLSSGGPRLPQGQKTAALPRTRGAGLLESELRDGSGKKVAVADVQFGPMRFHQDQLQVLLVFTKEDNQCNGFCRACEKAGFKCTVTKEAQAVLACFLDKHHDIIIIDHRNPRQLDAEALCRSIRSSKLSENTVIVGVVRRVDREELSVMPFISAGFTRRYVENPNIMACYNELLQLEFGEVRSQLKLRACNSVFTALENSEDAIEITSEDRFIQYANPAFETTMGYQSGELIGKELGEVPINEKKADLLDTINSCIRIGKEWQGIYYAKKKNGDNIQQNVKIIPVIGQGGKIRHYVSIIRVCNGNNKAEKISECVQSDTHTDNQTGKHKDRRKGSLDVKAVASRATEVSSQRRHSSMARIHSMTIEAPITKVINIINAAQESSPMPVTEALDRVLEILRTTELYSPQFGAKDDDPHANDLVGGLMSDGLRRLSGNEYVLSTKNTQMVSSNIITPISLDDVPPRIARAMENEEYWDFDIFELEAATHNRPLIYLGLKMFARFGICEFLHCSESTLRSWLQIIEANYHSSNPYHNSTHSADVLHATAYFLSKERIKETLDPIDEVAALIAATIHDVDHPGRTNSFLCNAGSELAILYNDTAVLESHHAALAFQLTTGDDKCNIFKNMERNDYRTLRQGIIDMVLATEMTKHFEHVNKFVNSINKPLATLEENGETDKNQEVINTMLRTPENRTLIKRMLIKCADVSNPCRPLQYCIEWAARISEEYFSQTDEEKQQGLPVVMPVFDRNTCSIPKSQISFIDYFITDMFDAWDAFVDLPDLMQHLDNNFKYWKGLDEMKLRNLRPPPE
PDE11A, sequence (Q9HCR9 whole entry, species assumed): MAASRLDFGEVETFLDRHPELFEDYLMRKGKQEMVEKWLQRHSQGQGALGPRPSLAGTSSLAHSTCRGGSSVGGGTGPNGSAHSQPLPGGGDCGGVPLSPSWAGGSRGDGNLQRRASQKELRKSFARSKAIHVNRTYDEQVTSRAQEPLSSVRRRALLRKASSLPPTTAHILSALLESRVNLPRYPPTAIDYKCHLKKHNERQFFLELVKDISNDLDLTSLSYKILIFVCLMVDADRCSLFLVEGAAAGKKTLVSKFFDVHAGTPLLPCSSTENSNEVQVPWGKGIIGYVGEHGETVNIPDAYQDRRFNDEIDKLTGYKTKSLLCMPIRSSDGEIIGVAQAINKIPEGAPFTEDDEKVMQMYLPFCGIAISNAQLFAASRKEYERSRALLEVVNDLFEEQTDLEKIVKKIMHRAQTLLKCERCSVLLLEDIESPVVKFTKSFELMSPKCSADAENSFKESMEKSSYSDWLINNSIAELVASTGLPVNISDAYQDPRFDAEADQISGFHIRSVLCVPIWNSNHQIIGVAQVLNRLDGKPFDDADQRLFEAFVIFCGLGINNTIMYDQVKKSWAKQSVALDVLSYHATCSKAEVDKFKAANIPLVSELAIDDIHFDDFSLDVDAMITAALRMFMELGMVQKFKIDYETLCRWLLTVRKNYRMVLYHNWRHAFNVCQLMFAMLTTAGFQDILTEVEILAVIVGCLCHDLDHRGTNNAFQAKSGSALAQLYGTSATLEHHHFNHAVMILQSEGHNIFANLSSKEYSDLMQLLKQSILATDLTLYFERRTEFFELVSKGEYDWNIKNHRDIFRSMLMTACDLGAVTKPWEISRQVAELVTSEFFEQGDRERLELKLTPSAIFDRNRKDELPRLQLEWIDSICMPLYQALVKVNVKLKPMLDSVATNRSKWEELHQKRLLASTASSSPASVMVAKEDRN
PDE6AB, sequence (P16499 whole entry): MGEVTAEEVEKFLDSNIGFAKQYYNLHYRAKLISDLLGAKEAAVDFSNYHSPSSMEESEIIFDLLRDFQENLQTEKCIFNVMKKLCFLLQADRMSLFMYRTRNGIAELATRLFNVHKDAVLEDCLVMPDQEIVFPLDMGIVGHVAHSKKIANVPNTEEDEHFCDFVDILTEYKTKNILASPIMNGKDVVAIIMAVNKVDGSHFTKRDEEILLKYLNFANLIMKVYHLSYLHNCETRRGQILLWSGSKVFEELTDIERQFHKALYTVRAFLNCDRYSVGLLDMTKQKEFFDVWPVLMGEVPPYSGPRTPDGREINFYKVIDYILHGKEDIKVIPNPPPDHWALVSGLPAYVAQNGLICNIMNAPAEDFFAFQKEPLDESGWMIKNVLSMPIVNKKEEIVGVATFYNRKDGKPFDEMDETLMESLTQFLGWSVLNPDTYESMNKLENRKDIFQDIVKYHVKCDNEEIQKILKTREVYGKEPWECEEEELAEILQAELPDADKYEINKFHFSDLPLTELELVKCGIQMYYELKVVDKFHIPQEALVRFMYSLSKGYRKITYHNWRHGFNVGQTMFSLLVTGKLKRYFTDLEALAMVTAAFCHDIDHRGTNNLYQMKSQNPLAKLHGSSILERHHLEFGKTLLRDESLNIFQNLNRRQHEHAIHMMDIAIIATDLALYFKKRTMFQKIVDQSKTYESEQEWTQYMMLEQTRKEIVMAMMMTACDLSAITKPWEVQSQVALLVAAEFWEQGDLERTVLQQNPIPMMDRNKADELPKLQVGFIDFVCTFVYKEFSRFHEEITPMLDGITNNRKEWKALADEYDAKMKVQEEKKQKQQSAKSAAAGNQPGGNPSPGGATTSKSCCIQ
PDE6AB, sequence (P35913 whole entry): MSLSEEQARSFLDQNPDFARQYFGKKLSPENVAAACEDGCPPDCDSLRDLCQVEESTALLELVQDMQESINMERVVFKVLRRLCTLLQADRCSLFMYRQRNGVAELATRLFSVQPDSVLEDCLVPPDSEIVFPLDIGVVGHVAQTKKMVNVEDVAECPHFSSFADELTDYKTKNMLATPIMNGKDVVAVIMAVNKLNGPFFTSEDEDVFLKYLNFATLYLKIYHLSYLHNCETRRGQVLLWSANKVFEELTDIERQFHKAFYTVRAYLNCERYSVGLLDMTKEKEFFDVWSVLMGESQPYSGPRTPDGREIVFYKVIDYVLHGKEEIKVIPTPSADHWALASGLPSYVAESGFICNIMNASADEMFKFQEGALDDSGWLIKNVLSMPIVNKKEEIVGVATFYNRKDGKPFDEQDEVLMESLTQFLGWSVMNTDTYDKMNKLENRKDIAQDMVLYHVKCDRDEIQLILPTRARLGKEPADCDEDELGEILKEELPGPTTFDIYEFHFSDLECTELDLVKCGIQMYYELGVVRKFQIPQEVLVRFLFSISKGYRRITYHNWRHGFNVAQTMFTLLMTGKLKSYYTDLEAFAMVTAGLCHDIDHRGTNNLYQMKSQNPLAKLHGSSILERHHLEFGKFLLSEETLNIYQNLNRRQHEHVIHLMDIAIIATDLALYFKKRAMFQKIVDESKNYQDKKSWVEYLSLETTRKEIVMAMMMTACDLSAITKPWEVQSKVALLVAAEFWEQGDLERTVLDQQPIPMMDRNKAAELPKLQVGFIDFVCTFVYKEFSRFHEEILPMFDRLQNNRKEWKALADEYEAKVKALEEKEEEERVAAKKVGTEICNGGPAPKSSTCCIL
PDE1B, sequence (Q01064 whole entry): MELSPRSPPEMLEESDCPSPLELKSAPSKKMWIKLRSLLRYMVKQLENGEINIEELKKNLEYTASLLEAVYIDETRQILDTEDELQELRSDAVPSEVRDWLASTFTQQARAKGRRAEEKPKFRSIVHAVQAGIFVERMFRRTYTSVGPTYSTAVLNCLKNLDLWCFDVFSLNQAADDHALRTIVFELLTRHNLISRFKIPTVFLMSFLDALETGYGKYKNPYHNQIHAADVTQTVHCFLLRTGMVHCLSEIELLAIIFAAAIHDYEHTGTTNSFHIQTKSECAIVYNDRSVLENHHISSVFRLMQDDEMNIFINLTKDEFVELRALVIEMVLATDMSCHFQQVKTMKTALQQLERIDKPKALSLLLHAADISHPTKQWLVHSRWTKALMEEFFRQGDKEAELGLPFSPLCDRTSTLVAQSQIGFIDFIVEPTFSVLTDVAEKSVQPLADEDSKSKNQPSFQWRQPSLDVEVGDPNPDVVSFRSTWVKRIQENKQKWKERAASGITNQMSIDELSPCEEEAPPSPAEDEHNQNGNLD

For the compound `Cc1nc2c(N3CCOCC3)nccn2c1-c1ccc(C2CCOCC2)nc1` [compound 25, 2-Methyl-8-morpholin-4-yl-3-[6-(tetrahydro-pyran-4-yl)-pyridin-3-yl]-imidazo[1,2-a]pyrazine], the IC50 on PDE5A is 33.9 µM; at PDE6AB, 96.5 µM; on PDE1B, > 100 µM; on PDE3A it was 112 µM; at PDE9A it was > 100 µM; on PDE8A1, > 100 µM. The IC50 at PDE7A was > 100 µM; on PDE11A, 66.1 µM. Further, the ED50 in [1] was 7.1 mg/kg; in experiment [2] it was 1.2 mg/kg; on PDE10 it was 4.6 mg/kg.
